Assay results published in publication PMC11748689, “Pharmacological and structural understanding of the Trypanosoma cruzi proteasome provides key insights for developing site-specific inhibitors” (The Journal of Biological Chemistry, 2024).

Assays:
Format in all cases: biochemical
[1] = target: native T. cruzi proteasome (trypsin-like activity, β2) (Trypanosoma cruzi, UniProt V5BCU3); assay: Trypsin-like activity assay (Proteasome-Glo), native T. cruzi proteasome; settings: mean ± SD, N = 3; read-out: pIC50, Trypsin Assay, Native (converted)
Protocol: (§1) Chymotrypsin-, trypsin-, and caspase-like activity assays were performed using a commercially available Proteasome-Glo 3-substrate system assay kit (catalog number G8532) (Promega Corporation) according to the manufacturers protocols and as previously described ([24]).
(§2) Prior to running assays, Proteasome-Glo buffer was used to reconstitute the luciferin detection reagent (containing a recombinant thermostable luciferase enzyme). The resuspended luciferin detection reagent was then mixed with Proteasome-Glo chymotrypsin-, trypsin- or caspase-like substrates (either 40 μM suc-Leu-Leu-Val-Tyr-aminoluciferin, 30 μM Z-Leu-Arg-Arg-aminoluciferin (Z is benzyloxycarbonyl) or 40 μM Z-Nle-Pro-Nle-Asp-aminoluciferin respectively (these concentrations represent 2x final assay concentrations)). These substrate mixtures were allowed to incubate at room temperature for 60 min prior to use to allow the removal of any contaminating free aminoluciferin.
(§3) When proteasome inhibitors were to be screened in the chymotrypsin, trypsin, and caspase assays, test compounds were dispensed into assay wells using an ECHO 550 acoustic dispenser (Labcyte) (final DMSO concentration 1%). Compounds were tested in either a 10-point concentration series (30 μM top final assay concentration, 1 in 3 dilution series) or a 12-point concentration series (30 μM top final assay concentration, 1 in 2.5 dilution series).
(§4) Proteasome assays were then performed as described above using Promega Proteasome-Glo 3-substrate system assay kit. […] Diluted proteasome (4 μl) was added to assay plates using an electronic multichannel pipette (Integra Biosciences Ltd) and the proteasome incubated with compound for 60 min at room temperature.
(§5) Following the 60 min incubation of proteasome and compounds, assays were initiated with the addition of 4 μl of a substrate mix (containing substrate and the luciferin detection reagent) using an electronic multichannel pipette. Final assay concentrations of substrates used were either 20 μM Suc-Leu-Leu-Val-Tyr-aminoluciferin, 15 μM Z-Leu-Arg-Arg-aminoluciferin, or 20 μM Z-Nle-Pro-Nle-Asp-aminoluciferin for chymotrypsin-, trypsin-, or caspase-like activity, respectively. Following a further 60 min assay incubation, luminescence was read using an EnVision 2102 Multilabel Reader (PerkinElmer, Inc) with 0.2 s per well reading time.
(§6) All data processing was performed using Microsoft Excel for Microsoft 365 software.
(§7) Nonlinear dose-response curve fitting was carried out using the Microsoft Excel add-in, XLfit (IDBS). Percentage inhibition data were either fitted to a standard 4-parameter logistic fit model (XLfit model 205; Equation 2) or a biphasic model (either XLfit model 300; Equation 3 or a custom biphasic model; Equation 4 (used in cases where the top and/or bottom parameters deviated from 100%/0% inhibition)).(2) y=A+(B−A)/1+(C/x)^D Where A = % inhibition at bottom, B = % inhibition at top, C = IC50, D = slope, x = inhibitor concentration and y = % inhibition.(3) y=(A/(1+10^(C−log(x))∗B))+((100−A)/(1+10^(D−log(x))∗B)) With A = % inhibition at midplateau, B = slope, C = log(IC50^A), D = log(IC50^B)).
(§8) All IC50 data generated were converted to pIC50 using Equation 5.

[2] = target: recombinant WT T. cruzi proteasome (caspase-like activity, β1) (Trypanosoma cruzi, UniProt V5BHX1); assay: Caspase-like activity assay (Proteasome-Glo), recombinant wild-type T. cruzi proteasome
Protocol: as §1, §2, §3, §4, §5, §6, §7, §8

[3] = target: recombinant WT T. cruzi proteasome (chymotrypsin-like activity, β5) (Trypanosoma cruzi, UniProt V5BU39+V5C017); assay: biochemical; settings: for maximum % inhibition plateau, Chymotrypsin Assay, Wild-type: mean ± SD, N = 3 (N = 2 for DDD02091966), (a) mid-point plateau from biphasic curve fits
Protocol: as §1, §2
(§9) Proteasome assays were carried out using 384-well, white, low-volume plates (catalog number 784904) (Greiner Bio-One) at room temperature (∼23 °C) in 8 μl reaction volumes. When activity checks were to be run in the presence or absence of a fixed concentration of proteasome inhibitor, 80 nL of the inhibitor (at a concentration 100x the required final assay concentration), or 80 nL dimethylsulfoxide (DMSO), were dispensed into assay plates using an Echo 550 acoustic dispenser (Labcyte).
(§10) A 1 in 2 dilution series of the various T. cruzi proteasome samples (native, recombinant WT, β4^R mutant, and Δβ1Δβ2 mutant) were produced in assay buffer (50 mM Tris–HCl, pH 7.5, 10 mM sucrose, 5 mM MgCl2, 1 mM DTT, 2 mM ATP, 150 mM NaCl, 1 mM EDTA, and 0.05 mg/ml bovine serum albumin). Subsequently, 4 μl of the various concentrations of diluted proteasome were added to assay plates using an electronic multichannel pipette (Integra Biosciences Ltd). When kinetic read activity checks were performed (Fig. 2), proteasome final assay concentrations used were 115 μg/ml, 115 μg/ml, and 230 μg/ml native proteasome (in the chymotrypsin, trypsin, and caspase assays, respectively), and 4.1 μg/ml, 3.4 μg/ml, or 1.4 μg/ml recombinant WT proteasome (in the chymotrypsin, trypsin, and caspase assays, respectively). When activity checks were to be run in the presence or absence of a proteasome inhibitor plates containing inhibitor or DMSO control were incubated with the relevant proteasome sample for 60 min at room temperature (this step was not included in activity check experiments where compounds were not used).
(§11) Following the 60 min incubation of proteasome and compound (if required), assays were initiated with the addition of 4 μl of substrate mix (containing substrate and the luciferin detection reagent) using an electronic multichannel pipette. Final assay concentrations of substrates used were either 20 μM Suc-Leu-Leu-Val-Tyr-aminoluciferin, 15 μM Z-Leu-Arg-Arg-aminoluciferin, or 20 μM Z-Nle-Pro-Nle-Asp-aminoluciferin for chymotrypsin-, trypsin- or caspase-like activity respectively.
(§12) Luminescence was read either kinetically or as an endpoint read using an EnVision 2102 Multilabel Reader (PerkinElmer, Inc) with 0.2 s per well reading time. When kinetic assays were run, luminescence was read every 5 min for 90 min. Endpoint assays were run for 60 min before luminescence was read. All data processing and linear fit analyses were performed using Microsoft Excel for Microsoft 365 software (Redmond, Washington; https://www.microsoft.com/).
as §3

[4] = target: recombinant β4^R mutant T. cruzi proteasome (caspase-like activity) (Trypanosoma cruzi, UniProt V5BHX1); assay: Caspase-like activity assay (Proteasome-Glo), recombinant β4^R mutant T. cruzi proteasome
Protocol: (§13) Point mutations were created in individual subunits using overlapping PCR from the original templates using Polh and Tn7L primers outside the genes and suitable internal primers to introduce selected mutations. For Δβ1Δβ2, β1 Thr 55, and β2 Thr 67 were both mutated to Ala, the β4^R mutant was produced by mutating Phe 24 and Ile 29 to Leu and Met respectively in β4 subunit.
as §1, §2, §9, §10, §11, §12

[5] = target: recombinant β4^R mutant T. cruzi proteasome (chymotrypsin-like activity) (Trypanosoma cruzi, UniProt V5BU39+V5C017, F24L/I29M); assay: biochemical
Protocol: as §13, §1, §2, §9, §10, §11, §12

[6] = target: recombinant Δβ1Δβ2 mutant T. cruzi proteasome (chymotrypsin-like activity) (Trypanosoma cruzi, UniProt V5BU39+V5C017); assay: biochemical
Protocol: as §13, §1, §2, §9, §10, §11, §12

| Compound | IC50 [1] | IC50 [2] | IC50 [3] | inhibition of chymotrypsin activity, recombinant WT proteasome, fixed concentration ([3]; 1 μM compound, endpoint activity vs proteasome concentration (Fig. 7A)) | maximum % inhibition plateau, Chymotrypsin Assay, Wild-type [3] | IC50 [4] | inhibition of caspase activity, β4^R mutant, fixed concentration ([4]; 1 μM compound (Fig. S4)) | IC50 [5] | inhibition of chymotrypsin activity, β4^R mutant, fixed concentration ([5]; 1 μM compound (Fig. 7C)) | IC50 [6] | inhibition of chymotrypsin activity, Δβ1Δβ2 mutant, fixed concentration ([6]; 1 μM compound (Fig. 7B)) | inhibition of the caspase activity ([2]; native and recombinant T. cruzi proteasomes) | extent of inhibition in chymotrypsin dose-response curve, Δβ1Δβ2 mutant ([6]; top of dose-response curve) |
| --- | --- | --- | --- | --- | --- | --- | --- | --- | --- | --- | --- | --- | --- |
| O=C(Nc1ccc(F)c(-c2cn3nc(-c4ccccc4)cnc3n2)c1)N1CCCC1 [DDD01012248] | > 30200 nM | > 30200 nM | 52.5 nM | partial inhibition | 67.7 ± 4.0% | > 30200 nM | did not inhibit | 2000 nM | no notable inhibition | 41.7 nM | full inhibition | – | – |
| O=C(Nc1ccc(F)c(C(=O)NC2CC2)c1)c1ccc(COc2ccccc2)o1 [DDD02091966, N-(3-(cyclopropylcarbamoyl)-4-fluorophenyl)-5-(phenoxymethyl)furan-2-carboxamide] | > 30200 nM | > 30200 nM | 34.7 nM | – | 51.6 ± 1.8% | > 30200 nM | – | > 30200 nM | – | 45.7 nM | – | no inhibition | unable to fully inhibit |
